Measurements as given in patent US20250034212A1, “PEPTIDE” (PEPTIDREAM INC., priority 2021, published 2025).
pKd: −log10 of the molar value. Starred links: 1 amine or outer side, 2 acyl side, 3 side chain; linkers in the order of their positions; H or OH if unused. Positions of bridges follow the written chain, without caps; N, C: chain ends. Non-standard residues stand in square brackets, D forms with d. Residues, ends and D or L forms follow the SMILES beside them. Groups on a side chain read outwards from the residue. *: point of attachment. Meglumine = CN(C[C@H](O)[C@@H](O)[C@H](O)[C@H](O)CO)*; Piperazinyl(4-CH2COOH) = O=C(O)CN1CCN(*)CC1; 1Nal = N[C@@H](Cc1cccc2ccccc12)C(=O)O; Gly(NCH2CH2Ph) = O=C(O)CNCCc1ccccc1; 4Pal = N[C@@H](Cc1ccncc1)C(=O)O; CO = O=C([*:1])[*:2]

Columns and labels:
[1] = target: T1, recombinant human TGF-β1 (Homo sapiens, UniProt P01137); assay: SPR intermolecular interaction test, TGF-β1 immobilized on CM3 sensor chip (Biacore T200); assay type: binding; conditions: Single Cycle Kinetics, human TGF-β1
T1 construct: purchased R&D systems
Description: In this Example, (1) the activity of binding to TGF-β for various peptides consisting of the amino acid sequences set forth in SEQ ID NOs: 2-33 synthesized in Examples 1 to 5 and 7 was evaluated. (2) The activity and selectivity of binding of the peptide consisting of the amino acid sequence set forth in SEQ ID NO: 13 synthesized in Example 2 against two isoforms of TGF-β (TGF-β1 and β2) were checked. For this purpose, the intermolecular interaction of each peptide against TGF-β was tested by surface plasmon resonance (SPR) in the method described below. Specific test methods are described below.
A CM3 sensor chip (Global Life Science Technologies Japan Co., Ltd.) was inserted into a BiacoreT200 (Global Life Science Technologies Japan Co., Ltd.). Three priming runs were performed using running buffer: HBS-EP+ (Global Life Science Technologies Japan Co., Ltd.). The system was then equilibrated at a flow rate of 30 μL/min.
Subsequently, 50 μL of 60 mM EDC solution (Global Life Science Technologies Japan Co., Ltd.) and 50 μL of 650 mM NHS solution (Global Life Science Technologies Japan Co., Ltd.) were mixed. Next, the reaction was carried out at a flow rate of 10 μL/min for 420 seconds. Then, 150 μL of 0.2 μM TGF-β solution diluted in 10 mM acetic acid solution (pH 5.0) was prepared and reacted at a flow rate of 10 μL/min for 420 seconds to immobilize TGF-β on the CM3 sensor chip. TGF-β was human-derived TGF-β1 or β2 (recombinant human TGF-β1, 2) and was obtained from R&D systems. After immobilization, capping was performed by reacting with 1.0 M ethanolamine aqueous solution (Global Life Science Technologies Japan Co., Ltd.) at a flow rate of […] for 420 seconds.
A liquid prepared by dissolving each peptide at 10 mM in DMSO solution was diluted with running buffer to prepare a peptide-dissolved solution at a final concentration of 10 μM. Subsequently, 50 nM, 25 nM, 12.5 nM, 5 nM, and 2.5 nM peptide solutions were prepared. Using the above samples, the kinetics of each peptide against TGF-β was obtained by SPR measurement.
The kinetics evaluation model was Single Cycle Kinetics, and curve fitting was performed using Biacore T200 Evaluation Software Version 3.0 (Global Life Science Technologies Japan Co., Ltd.). The binding of various peptides to TGF-β was evaluated by performing least-squares curve fitting on the obtained sensorgram to calculate the KD value.

[2] = target: T1, recombinant human TGF-β1; assay: SBE reporter assay in SBE reporter-HEK293 cells, TGF-β1 stimulation; assay type: cell-based; conditions: TGF-β1 0.13 nM, 18 hours; for inhibition at 62 pM: peptide 0.062 nM; for inhibition at 0.000185 µM: peptide 0.185 nM; for inhibition at 0.00056 µM: peptide 0.56 nM; for inhibition at 0.0017 µM: peptide 1.7 nM; for inhibition at 0.005 µM: peptide 5.0 nM; for inhibition at 0.015 µM: peptide 15.0 nM
In short: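 SBE luciferase reporter HEK293 cells in 0.5% FBS medium, preincubated 20 min with peptide, then stimulated 18 h with 0.13 nM recombinant human TGF-β1. Luminescence read; inhibition scaled with maximal TGF-β signal as 0% and unstimulated as 100%.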

T1 sequence (P01137 279-390 limits assumed): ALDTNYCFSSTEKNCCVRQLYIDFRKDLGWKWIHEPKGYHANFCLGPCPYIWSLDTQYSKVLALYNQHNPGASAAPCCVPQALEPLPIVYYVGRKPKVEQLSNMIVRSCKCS

pKd [1]	inhibition at 62 pM [2] [%]	inhibition at 0.000185 µM [2] [%]	inhibition at 0.00056 µM [2] [%]	inhibition at 0.0017 µM [2] [%]	inhibition at 0.005 µM [2] [%]	inhibition at 0.015 µM [2] [%]	Structure (SMILES)
8.90	8.5	15.8	36.3	70.4	89.3	96.9	CC(C)[C@@H]1NC(=O)CN(CCc2ccccc2)C(=O)[C@H](CC(=O)O)NC(=O)[C@H](CC(=O)O)NC(=O)[C@H](Cc2ccncc2)NC(=O)[C@H](C(C)C)NC(=O)[C@H](CC(N)=O)NC(=O)[C@H](CCCCNC(=O)N(C)C[C@H](O)[C@@H](O)[C@H](O)[C@H](O)CO)NC(=O)[C@H](C(C)C)NC(=O)[C@H](Cc2cccc3ccccc23)NC(=O)[C@H](Cc2ccccc2)NC(=O)CSC[C@@H](C(=O)NCC(N)=O)NC(=O)[C@H](CCCCNC(=O)N2CCN(CC(=O)O)CC2)NC(=O)[C@H](Cc2c[nH]cn2)NC(=O)[C@H](Cc2ccc(O)cc2)NC(=O)[C@H](Cc2cccc3ccccc23)NC1=O [TGFb1_020] ({CH2CO}-F[1Nal]VK([CO-Meglumine])NV[4Pal]DD[Gly(NCH2CH2Ph)]V[1Nal]YHK([CO-Piperazinyl(4-CH2COOH)])CG-NH2; thioether N-16)
9.04	6.49	20.8	53.8	85.2	97.1	99.5	CC(C)[C@@H]1NC(=O)CN(CCc2ccccc2)C(=O)[C@H](CCCCNC(=O)N2CCN(CC(=O)O)CC2)NC(=O)[C@H](CC(=O)O)NC(=O)[C@H](Cc2ccncc2)NC(=O)[C@H](C(C)C)NC(=O)[C@H](CC(N)=O)NC(=O)[C@H](C(C)C)NC(=O)[C@H](C(C)C)NC(=O)[C@H](Cc2cccc3ccccc23)NC(=O)[C@H](Cc2ccccc2)NC(=O)CSC[C@@H](C(=O)NCC(N)=O)NC(=O)[C@H](CCCCNC(=O)N2CCN(CC(=O)O)CC2)NC(=O)[C@H](Cc2c[nH]cn2)NC(=O)[C@H](Cc2ccc(O)cc2)NC(=O)[C@H](Cc2cccc3ccccc23)NC1=O [TGFb1_022] ({CH2CO}-F[1Nal]VVNV[4Pal]DK([CO-Piperazinyl(4-CH2COOH)])[Gly(NCH2CH2Ph)]V[1Nal]YHK([CO-Piperazinyl(4-CH2COOH)])CG-NH2; thioether N-16)
8.98	8.58	24.4	49.7	82.3	96	99.5	CC(C)[C@@H]1NC(=O)CN(CCc2ccccc2)C(=O)[C@H](CCCCNC(=O)N(C)C[C@H](O)[C@@H](O)[C@H](O)[C@H](O)CO)NC(=O)[C@H](CC(=O)O)NC(=O)[C@H](Cc2ccncc2)NC(=O)[C@H](C(C)C)NC(=O)[C@H](CC(N)=O)NC(=O)[C@H](C(C)C)NC(=O)[C@H](C(C)C)NC(=O)[C@H](Cc2cccc3ccccc23)NC(=O)[C@H](Cc2ccccc2)NC(=O)CSC[C@@H](C(=O)NCC(N)=O)NC(=O)[C@H](CCCCNC(=O)N2CCN(CC(=O)O)CC2)NC(=O)[C@H](Cc2c[nH]cn2)NC(=O)[C@H](Cc2ccc(O)cc2)NC(=O)[C@H](Cc2cccc3ccccc23)NC1=O [TGFb1_023] ({CH2CO}-F[1Nal]VVNV[4Pal]DK([CO-Meglumine])[Gly(NCH2CH2Ph)]V[1Nal]YHK([CO-Piperazinyl(4-CH2COOH)])CG-NH2; thioether N-16)
8.98	5.79	16.6	45	80.2	95.5	98.9	CC(C)[C@@H]1NC(=O)CN(CCc2ccccc2)C(=O)[C@H](CCC(=O)O)NC(=O)[C@H](CC(=O)O)NC(=O)[C@H](Cc2ccncc2)NC(=O)[C@H](C(C)C)NC(=O)[C@H](CC(N)=O)NC(=O)[C@H](CCCCNC(=O)N(C)C[C@H](O)[C@@H](O)[C@H](O)[C@H](O)CO)NC(=O)[C@H](C(C)C)NC(=O)[C@H](Cc2cccc3ccccc23)NC(=O)[C@H](Cc2ccccc2)NC(=O)CSC[C@@H](C(=O)NCC(N)=O)NC(=O)[C@H](CCCCNC(=O)N2CCN(CC(=O)O)CC2)NC(=O)[C@H](Cc2c[nH]cn2)NC(=O)[C@H](Cc2ccc(O)cc2)NC(=O)[C@H](Cc2cccc3ccccc23)NC1=O [TGFb1_024] ({CH2CO}-F[1Nal]VK([CO-Meglumine])NV[4Pal]DE[Gly(NCH2CH2Ph)]V[1Nal]YHK([CO-Piperazinyl(4-CH2COOH)])CG-NH2; thioether N-16)
9.08	4.81	18.4	43.3	77.5	94.7	99.4	CC(C)[C@@H]1NC(=O)CN(CCc2ccccc2)C(=O)[C@H](CCCCNC(=O)N2CCN(CC(=O)O)CC2)NC(=O)[C@H](CC(=O)O)NC(=O)[C@H](Cc2ccncc2)NC(=O)[C@H](C(C)C)NC(=O)[C@H](CC(N)=O)NC(=O)[C@H](CCCCNC(=O)N(C)C[C@H](O)[C@@H](O)[C@H](O)[C@H](O)CO)NC(=O)[C@H](C(C)C)NC(=O)[C@H](Cc2cccc3ccccc23)NC(=O)[C@H](Cc2ccccc2)NC(=O)CSC[C@@H](C(=O)NCC(N)=O)NC(=O)[C@H](CCCCNC(=O)N2CCN(CC(=O)O)CC2)NC(=O)[C@H](Cc2c[nH]cn2)NC(=O)[C@H](Cc2ccc(O)cc2)NC(=O)[C@H](Cc2cccc3ccccc23)NC1=O [TGFb1_025] ({CH2CO}-F[1Nal]VK([CO-Meglumine])NV[4Pal]DK([CO-Piperazinyl(4-CH2COOH)])[Gly(NCH2CH2Ph)]V[1Nal]YHK([CO-Piperazinyl(4-CH2COOH)])CG-NH2; thioether N-16)
8.99	6.85	17.8	41.4	74.3	93.4	98	CC(C)[C@@H]1NC(=O)CN(CCc2ccccc2)C(=O)[C@H](CCCCNC(=O)N(C)C[C@H](O)[C@@H](O)[C@H](O)[C@H](O)CO)NC(=O)[C@H](CC(=O)O)NC(=O)[C@H](Cc2ccncc2)NC(=O)[C@H](C(C)C)NC(=O)[C@H](CC(N)=O)NC(=O)[C@H](CCCCNC(=O)N(C)C[C@H](O)[C@@H](O)[C@H](O)[C@H](O)CO)NC(=O)[C@H](C(C)C)NC(=O)[C@H](Cc2cccc3ccccc23)NC(=O)[C@H](Cc2ccccc2)NC(=O)CSC[C@@H](C(=O)NCC(N)=O)NC(=O)[C@H](CCCCNC(=O)N2CCN(CC(=O)O)CC2)NC(=O)[C@H](Cc2c[nH]cn2)NC(=O)[C@H](Cc2ccc(O)cc2)NC(=O)[C@H](Cc2cccc3ccccc23)NC1=O [TGFb1_026] ({CH2CO}-F[1Nal]VK([CO-Meglumine])NV[4Pal]DK([CO-Meglumine])[Gly(NCH2CH2Ph)]V[1Nal]YHK([CO-Piperazinyl(4-CH2COOH)])CG-NH2; thioether N-16)
